Experimental data as given in PMC8524670 (Pharmacology Research & Perspectives, 2021).

Columns and labels:
CYP2C8 = experiment: CYP induction in human hepatocytes; assay type: in vitro ADME
CYP2D6 [1] = target: T1, CYP2D6 (Homo sapiens, UniProt P10635); experiment: CYP reversible inhibition in HLMs; assay type: in vitro ADME
CYP2D6 [2] = target: T1, CYP2D6; experiment: Time-dependent CYP inhibition in HLMs; conditions: 10 µM zanubrutinib, 30 min pre-incubation with HLMs and NADPH
P-gp [3] = target: T2, P-gp (Homo sapiens, UniProt P08183); conditions: coadministration of zanubrutinib; cited from earlier work
CYP2C19 = CYP2C19 (Homo sapiens, UniProt P33261); experiment: CYP reversible inhibition in HLMs; conditions: S-mephenytoin
P-gp [4] = target: T2, P-gp; experiment: P-gp transportation in MDCK-MDR1 cells; assay type: in vitro ADME
CYP2B6 = target: T3, CYP2B6 (Homo sapiens, UniProt P20813); experiment: CYP reversible inhibition in HLMs; assay type: in vitro ADME
T3 sequence (P20813 1-491): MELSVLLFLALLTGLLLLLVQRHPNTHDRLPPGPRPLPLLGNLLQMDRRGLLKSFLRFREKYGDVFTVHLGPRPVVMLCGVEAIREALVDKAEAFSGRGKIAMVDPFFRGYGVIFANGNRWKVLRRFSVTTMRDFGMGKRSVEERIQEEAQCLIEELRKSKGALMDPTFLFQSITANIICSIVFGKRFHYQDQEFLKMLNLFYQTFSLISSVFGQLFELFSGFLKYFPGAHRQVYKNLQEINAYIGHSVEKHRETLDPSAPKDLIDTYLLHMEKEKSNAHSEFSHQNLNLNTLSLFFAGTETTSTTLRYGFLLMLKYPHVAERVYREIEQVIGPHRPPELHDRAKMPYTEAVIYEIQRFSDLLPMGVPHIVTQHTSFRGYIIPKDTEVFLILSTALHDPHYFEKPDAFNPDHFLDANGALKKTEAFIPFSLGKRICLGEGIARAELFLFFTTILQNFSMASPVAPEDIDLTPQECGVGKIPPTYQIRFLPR

CYP3A = conditions: cited from earlier work
OCT2 = target: T4, OCT2 (Homo sapiens, UniProt O15244); experiment: SLC inhibition assay in HEK293 cells; assay type: in vitro ADME
T4 sequence (O15244 1-555): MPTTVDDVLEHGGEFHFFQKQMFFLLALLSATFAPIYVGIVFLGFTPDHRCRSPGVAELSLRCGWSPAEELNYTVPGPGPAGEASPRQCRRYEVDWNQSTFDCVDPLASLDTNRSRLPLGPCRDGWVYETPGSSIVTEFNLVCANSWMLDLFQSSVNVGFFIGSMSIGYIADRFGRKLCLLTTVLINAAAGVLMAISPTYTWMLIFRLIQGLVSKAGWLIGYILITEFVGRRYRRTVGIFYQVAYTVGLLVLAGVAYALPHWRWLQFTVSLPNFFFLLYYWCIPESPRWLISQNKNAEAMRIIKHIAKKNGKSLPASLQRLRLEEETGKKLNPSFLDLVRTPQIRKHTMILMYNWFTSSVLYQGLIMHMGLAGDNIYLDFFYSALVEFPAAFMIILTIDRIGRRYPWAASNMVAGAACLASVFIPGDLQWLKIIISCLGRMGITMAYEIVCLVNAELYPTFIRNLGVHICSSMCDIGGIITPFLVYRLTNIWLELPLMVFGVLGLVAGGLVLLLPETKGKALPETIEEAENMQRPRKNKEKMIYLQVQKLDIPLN

[5] = DDI basic model value for induction
[6] = static model term, induction in liver
[7] = human, HEK293 cells overexpressing OCT2 (and MOCK cells), probe metformin

T1 sequence (P10635 whole entry): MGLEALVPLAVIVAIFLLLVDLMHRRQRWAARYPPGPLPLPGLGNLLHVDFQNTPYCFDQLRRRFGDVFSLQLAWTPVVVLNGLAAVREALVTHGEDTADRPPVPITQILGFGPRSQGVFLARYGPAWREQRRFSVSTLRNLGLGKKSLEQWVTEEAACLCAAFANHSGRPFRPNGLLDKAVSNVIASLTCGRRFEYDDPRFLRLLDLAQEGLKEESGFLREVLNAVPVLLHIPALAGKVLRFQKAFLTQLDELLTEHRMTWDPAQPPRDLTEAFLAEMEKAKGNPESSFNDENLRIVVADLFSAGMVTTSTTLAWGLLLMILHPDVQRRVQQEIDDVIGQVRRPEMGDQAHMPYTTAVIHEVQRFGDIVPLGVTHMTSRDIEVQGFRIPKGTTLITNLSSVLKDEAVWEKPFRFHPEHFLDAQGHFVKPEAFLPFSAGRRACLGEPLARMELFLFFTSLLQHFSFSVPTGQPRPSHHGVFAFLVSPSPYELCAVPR
T2 sequence (P08183 whole entry): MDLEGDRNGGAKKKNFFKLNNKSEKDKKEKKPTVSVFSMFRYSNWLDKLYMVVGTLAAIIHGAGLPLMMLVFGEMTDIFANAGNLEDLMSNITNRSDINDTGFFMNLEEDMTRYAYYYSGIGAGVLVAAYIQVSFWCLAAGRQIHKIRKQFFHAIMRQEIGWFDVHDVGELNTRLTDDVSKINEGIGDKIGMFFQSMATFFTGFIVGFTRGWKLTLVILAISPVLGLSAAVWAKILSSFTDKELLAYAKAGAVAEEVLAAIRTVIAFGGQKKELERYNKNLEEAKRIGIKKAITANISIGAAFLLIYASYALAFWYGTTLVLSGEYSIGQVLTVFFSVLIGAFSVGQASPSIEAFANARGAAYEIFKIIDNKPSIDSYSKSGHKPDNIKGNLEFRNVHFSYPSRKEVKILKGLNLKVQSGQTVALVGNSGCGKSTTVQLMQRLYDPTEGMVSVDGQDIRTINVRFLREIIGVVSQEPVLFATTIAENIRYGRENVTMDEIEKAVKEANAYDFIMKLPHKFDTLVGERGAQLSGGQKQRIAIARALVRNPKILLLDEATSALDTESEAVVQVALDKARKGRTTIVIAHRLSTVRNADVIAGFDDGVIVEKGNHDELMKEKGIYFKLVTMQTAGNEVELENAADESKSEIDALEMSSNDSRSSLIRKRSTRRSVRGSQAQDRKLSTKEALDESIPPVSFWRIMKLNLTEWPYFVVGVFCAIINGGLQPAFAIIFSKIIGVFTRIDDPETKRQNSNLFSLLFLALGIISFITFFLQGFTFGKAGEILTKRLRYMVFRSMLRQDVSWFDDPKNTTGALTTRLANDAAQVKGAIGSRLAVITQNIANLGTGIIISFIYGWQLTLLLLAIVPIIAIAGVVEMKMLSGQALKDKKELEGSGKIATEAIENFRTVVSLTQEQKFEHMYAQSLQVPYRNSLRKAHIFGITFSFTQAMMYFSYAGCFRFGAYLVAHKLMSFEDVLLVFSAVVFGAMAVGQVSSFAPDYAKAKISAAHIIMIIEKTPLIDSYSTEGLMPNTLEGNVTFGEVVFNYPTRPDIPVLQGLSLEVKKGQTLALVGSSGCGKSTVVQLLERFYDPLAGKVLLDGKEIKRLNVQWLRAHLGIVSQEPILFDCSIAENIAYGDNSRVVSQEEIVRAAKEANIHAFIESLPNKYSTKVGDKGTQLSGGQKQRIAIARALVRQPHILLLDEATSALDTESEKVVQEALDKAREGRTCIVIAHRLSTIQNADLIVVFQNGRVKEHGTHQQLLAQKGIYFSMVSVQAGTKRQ
Sequence of CYP2C19 (P33261 whole entry): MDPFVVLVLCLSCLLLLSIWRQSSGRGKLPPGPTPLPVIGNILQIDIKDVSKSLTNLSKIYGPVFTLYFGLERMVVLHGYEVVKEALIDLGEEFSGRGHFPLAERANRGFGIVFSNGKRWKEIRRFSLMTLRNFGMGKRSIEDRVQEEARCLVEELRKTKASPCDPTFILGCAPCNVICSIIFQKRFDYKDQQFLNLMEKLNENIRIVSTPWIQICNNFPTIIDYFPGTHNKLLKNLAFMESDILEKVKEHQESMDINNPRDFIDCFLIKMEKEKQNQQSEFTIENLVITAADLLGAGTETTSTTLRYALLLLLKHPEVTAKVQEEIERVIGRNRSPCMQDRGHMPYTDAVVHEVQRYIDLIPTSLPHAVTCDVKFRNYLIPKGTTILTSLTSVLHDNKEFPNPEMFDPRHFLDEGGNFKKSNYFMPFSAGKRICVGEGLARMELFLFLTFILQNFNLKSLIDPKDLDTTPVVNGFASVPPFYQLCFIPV

With `C=CC(=O)N1CCC([C@@H]2CCNc3c(C(N)=O)c(-c4ccc(Oc5ccccc5)cc4)nn32)CC1` [zanubrutinib] as the compound, how does the “R 3” value (CYP3A4; [5]) read?
The value was 0.23.

What about the Cg (CYP3A4; static model term, induction in gut) of the same compound?
Its Cg is 14.6.

What about the Ch (CYP3A4; [6]) of the same compound?
Its Ch is 1.77.

And the EC50 at 3 days (CYP2C8; human, cryopreserved human hepatocytes)?
The EC50 at 3 days was […].

What about the IC50 (CYP2D6 [1]) of the same compound?
The IC50 was 72.9 µM.

What about the Ki (CYP2D6 [1]; Ki, dextromethorphan, Ki = IC50/2) of the same compound?
The Ki was 36.5 µM.

And the Ki (CYP2D6 [1]; Kiu, dextromethorphan, unbound Ki)?
The Ki was 28.8 µM.

And the R1 (CYP2D6 [1]; dextromethorphan, DDI basic model, hepatic)?
Its R1 is 1.00.

What about the Ah (CYP2D6 [1]; dextromethorphan, static model term, liver inhibition) of the same compound?
Its Ah is 1.00.

And the “Percent loss of enzymatic activity” value (CYP2D6 [2])?
The value was −14.6%.

What about the “Increase of C max of P-gp probe digoxin” value (P-gp [3]) of the same compound?
Its value is 34%.

And the R1 (CYP2C19; DDI basic model, hepatic)?
Its R1 is 1.03.

What about the Ah (CYP2C19; static model term, liver inhibition) of the same compound?
Its Ah is 0.97.

And the Papp A→B at 90 min, 1 µM (P-gp [4]; dog, MDCK-MDR1)?
The Papp A→B at 90 min, 1 µM was 9.16 ± 0.1 ×10⁻⁶ cm/s.

What about the Papp A→B at 90 min, 10 µM (P-gp [4]; dog, MDCK-MDR1) of the same compound?
Its Papp A→B at 90 min, 10 µM is 21.9 ± 0.049 ×10⁻⁶ cm/s.

And the Papp B→A at 90 min, 1 µM (P-gp [4]; dog, MDCK-MDR1)?
Its Papp B→A at 90 min, 1 µM is 31.7 ± 0.12 ×10⁻⁶ cm/s.

And the Papp B→A at 90 min, 10 µM (P-gp [4]; dog, MDCK-MDR1)?
Its Papp B→A at 90 min, 10 µM is 47.9 ± 0.094 ×10⁻⁶ cm/s.

What about the P-gp substrate status (P-gp [4]; efflux ratio >2 indicates substrate) of the same compound?
Its P-gp substrate status is “potential P‐gp substrate”.

And the IC50 (CYP2B6)?
The IC50 was 121 µM.

What about the Ki (CYP2B6; Ki, bupropion, Ki = IC50/2) of the same compound?
Its Ki is 60.5 µM.

What about the Ki (CYP2B6; Kiu, bupropion, unbound Ki) of the same compound?
The Ki was 47.8 µM.

What about the R1 (CYP2B6; bupropion, DDI basic model, hepatic) of the same compound?
Its R1 is 1.00.

What about the Ah (CYP2B6; bupropion, static model term, liver inhibition) of the same compound?
The Ah was 1.00.

What about the “Reduction in AUC0‐inf of zanubrutinib” value (CYP3A; co-administered with CYP3A inducer rifampin) of the same compound?
Its value is 13.5 fold.

What about the “Increase in AUC0‐inf of zanubrutinib” value (CYP3A; co-administered with CYP3A inhibitor itraconazole) of the same compound?
The value was 3.8 fold.

What about the IC50 (OCT2) of the same compound?
The IC50 was ~4.5 µM.

And the activity at 0.05 µM (OCT2; [7])?
The activity at 0.05 µM was 107 ± 10%.

What about the activity at 0.2 µM (OCT2; [7]) of the same compound?
Its activity at 0.2 µM is 339 ± 5.7%.

What about the activity at 1 µM (OCT2; [7]) of the same compound?
Its activity at 1 µM is 178 ± 36%.

What about the activity at 5 µM (OCT2; [7]) of the same compound?
The activity at 5 µM was 48.4 ± 5.2%.

And the Inhibitor status (OCT2; up to 5.0 μM)?
Its Inhibitor status is “marginal inhibitor”.
